Test results published in patent publication US11779606B2, “Peptides and combination of peptides of non-canonical origin for use in immunotherapy against different types of cancers” (Immatics Biotechnologies GmbH, priority 2018, dated 2023).

Columns and labels:
[1] = test system: CD8+ T cells; assay: In vitro T-cell priming assay (immunogenicity) with artificial APCs loaded with peptide/MHC complexes and anti-CD28; format: cell-based, human; settings: CD8+ T cells of healthy HLA-A*02 donors, multimer staining, Table 13b
Description: In order to obtain information regarding the immunogenicity of the TUMAPs of the present invention, the inventors performed investigations using an in vitro T-cell priming assay based on repeated stimulations of CD8+ T cells with artificial antigen presenting cells (aAPCs) loaded with peptide/MHC complexes and anti-CD28 antibody.
In order to perform in vitro stimulations by artificial antigen presenting cells loaded with peptide-MHC complex (pMHC) and anti-CD28 antibody, the inventors first isolated CD8+ T cells from fresh HLA-A*02 leukapheresis products via positive selection using CD8 microbeads (Miltenyi Biotec, Bergisch-Gladbach, Germany) of healthy donors obtained from the University clinics Mannheim, Germany, after informed consent.
PBMCs and isolated CD8+ lymphocytes were incubated in T-cell medium (TCM) until use consisting of RPMI-Glutamax (Invitrogen, Karlsruhe, Germany) supplemented with 10% heat inactivated human AB serum (PAN-Biotech, Aidenbach, Germany), 100 U/ml Penicillin/100 μg/ml Streptomycin (Cambrex, Cologne, Germany), 1 mM sodium pyruvate (CC Pro, Oberdorla, Germany), 20 μg/ml Gentamycin (Cambrex). 2.5 ng/ml IL-7 (PromoCell, Heidelberg, Germany) and 10 U/ml IL-2 (Novartis Pharma, Nümberg, Germany) were also added to the TCM at this step.
Generation of pMHC/anti-CD28 coated beads, T-cell stimulations and readout was performed in a highly defined in vitro system using four different pMHC molecules per stimulation condition and 8 different pMHC molecules per readout condition.
The purified co-stimulatory mouse IgG2a anti human CD28 Ab 9.3 (Jung et al., 1987) was chemically biotinylated using Sulfo-N-hydroxysuccinimidobiotin as recommended by the manufacturer (Perbio, Bonn, Germany). Beads used were 5.6 μm diameter streptavidin coated polystyrene particles (Bangs Laboratories, Illinois, USA).
800.000 beads/200 μl were coated in 96-well plates in the presence of 4×12.5 ng different biotin-pMHC, washed and 600 ng biotin anti-CD28 were added subsequently in a volume of 200 μl. Stimulations were initiated in 96-well plates by co-incubating […] CD8+ T cells with 2×10^5 washed coated beads in 200 μl TCM supplemented with 5 ng/ml IL-12 (PromoCell) for 3 days at 37° C. Half of the medium was then exchanged by fresh TCM supplemented with 80 U/ml IL-2 and incubating was continued for 4 days at 37° C. This stimulation cycle was performed for a total of three times. For the pMHC multimer readout using 8 different pMHC molecules per condition, a two-dimensional combinatorial coding approach was used as previously described (Andersen et al., 2012) with minor modifications encompassing coupling to 5 different fluorochromes. Finally, multimeric analyses were performed by staining the cells with Live/dead near IR dye (Invitrogen, Karlsruhe, Germany), CD8-FITC antibody clone SK1 (BD, Heidelberg, Germany) and fluorescent pMHC multimers. For analysis, a BD LSRII SORP cytometer equipped with appropriate lasers and filters was used. Peptide specific cells were calculated as percentage of total CD8+ cells. Evaluation of multimeric analysis was done using the FlowJo software (Tree Star, Oreg., USA). In vitro priming of specific multimer+CD8+ lymphocytes was detected by comparing to negative control stimulations.

[2] = target: HLA-A*02:01 (Homo sapiens, UniProt P04439, D140Y/D185E/D98H/E176V/E277Q/G131W/G231S/I119V/I121R/I166T/I218V/L300P/L318F/N151K/N90K/P208A/P217A/Q86G/Q94H/R138H/R169H/T345S); assay: MHC binding assay (UV-ligand exchange, β2m ELISA); settings: MHC class I binding score; peptide exchange yield, binding to HLA-A*02:01, UV-ligand exchange with β2m ELISA
Description: Candidate peptides for T cell based therapies according to the present invention were further tested for their MHC binding capacity (affinity).
The individual peptide-MHC complexes were produced by UV-ligand exchange, where a UV-sensitive peptide is cleaved upon UV-irradiation and exchanged with the peptide of interest as analyzed. Only peptide candidates that can effectively bind and stabilize the peptide-receptive MHC molecules prevent dissociation of the MHC complexes. To determine the yield of the exchange reaction, an ELISA was performed based on the detection of the light chain (β2m) of stabilized MHC complexes. The assay was performed as generally described in Rodenko et al. (Rodenko et al., 2006).
96 well MAXISorp plates (NUNC) were coated over night with 2 ug/ml streptavidin in PBS at room temperature, washed 4× and blocked for 1h at 37° C. in 2% BSA containing blocking buffer. Refolded HLA-A*02:01/MLA-001 monomers served as standards, covering the range of 15-500 ng/ml. Peptide-MHC monomers of the UV-exchange reaction were diluted 100 fold in blocking buffer. Samples were incubated for 1 h at 37° C., washed four times, incubated with 2 ug/ml HRP conjugated anti-β2m for 1h at 37° C., washed again and detected with TMB solution that is stopped with […]. Absorption was measured at 450 nm. Candidate peptides that show a high exchange yield (preferably higher than 50%, most preferred higher than 75%) are generally preferred for a generation and production of antibodies or fragments thereof, and/or T cell receptors or fragments thereof, as they show sufficient avidity to the MHC molecules and prevent dissociation of the MHC complexes.

Row | Substance | Wells positive [%] [1] | Peptide exchange [2]
1 | 74 (TLLSYSIPL; listed as Homo sapiens) [compound 74] | + (<20% = +) | ++++ (≥75% = ++++)
2 | 31 (VVLPIVITL; listed as Homo sapiens) [compound 31] | ++ (20-49% = ++) | ++++ (≥75% = ++++)
3 | 26 (KLWTSLVNL; listed as Homo sapiens) [compound 26] | +++ (50-69% = +++) | ++++ (≥75% = ++++)
4 | 29 (LLWEFPSMA; listed as Homo sapiens) [compound 29] | ++ (20-49% = ++) | ++++ (≥75% = ++++)
5 | 46 (AMVEIIPKV; listed as Homo sapiens) [compound 46] | + (<20% = +) | ++++ (≥75% = ++++)
6 | 38 (SLSAWLPSL; listed as Homo sapiens) [compound 38] | + (<20% = +) | ++++ (≥75% = ++++)
7 | 33 (FASERPPSV; listed as Homo sapiens) [compound 33] | +++ (50-69% = +++) | ++++ (≥75% = ++++)
8 | 6 (ALHDSPVYL; listed as Homo sapiens) [compound 6] | ++ (20-49% = ++) | ++++ (≥75% = ++++)
9 | 2 (ALLDVLVKL; listed as Homo sapiens) [compound 2] | + (<20% = +) | ++++ (≥75% = ++++)
10 | 19 (MLLPWLPKL; listed as Homo sapiens) [compound 19] | +++ (50-69% = +++) | ++++ (≥75% = ++++)
11 | 101 (KLPEGHLPEV; listed as Homo sapiens) [compound 101] | + (<20% = +) | ++++ (≥75% = ++++)
12 | 48 (MLAEIHPKA; listed as Homo sapiens) [compound 48] | +++ (50-69% = +++) | ++++ (≥75% = ++++)
13 | 68 (KLLADAFKV; listed as Homo sapiens) [compound 68] | ++++ (≥70% = ++++) | ++++ (≥75% = ++++)
14 | 18 (KMMTFFQGL; listed as Homo sapiens) [compound 18] | ++++ (≥70% = ++++) | ++++ (≥75% = ++++)
15 | 3 (FLLVPSPIWQL; listed as Homo sapiens) [compound 3] | + (<20% = +) | ++++ (≥75% = ++++)
16 | 50 (GLASYLDRV; listed as Homo sapiens) [compound 50] | + (<20% = +) | ++++ (≥75% = ++++)
17 | 51 (GLLTQVHIL; listed as Homo sapiens) [compound 51] | + (<20% = +) | ++++ (≥75% = ++++)
18 | 65 (IAISQLTFV; listed as Homo sapiens) [compound 65] | + (<20% = +) | ++++ (≥75% = ++++)
19 | 49 (FLWDPRDVVL; listed as Homo sapiens) [compound 49] | + (<20% = +) | ++++ (≥75% = ++++)
20 | 96 (KIIEDLANTV; listed as Homo sapiens) [compound 96] | ++ (20-49% = ++) | ++++ (≥75% = ++++)
21 | 40 (FTLPFLVNL; listed as Homo sapiens) [compound 40] | +++ (50-69% = +++) | ++++ (≥75% = ++++)
22 | 1 (KLLDFSTRI; listed as Homo sapiens) [compound 1] | + (<20% = +) | ++++ (≥75% = ++++)
23 | 13 (FLDEGSLLRL; listed as Homo sapiens) [compound 13] | + (<20% = +) | ++++ (≥75% = ++++)
24 | 47 (ALLPGVPGL; listed as Homo sapiens) [compound 47] | ++ (20-49% = ++) | ++++ (≥75% = ++++)
25 | 36 (FQVTRTTGV; listed as Homo sapiens) [compound 36] | + (<20% = +) | ++++ (≥75% = ++++)
26 | 37 (KILDEFYNV; listed as Homo sapiens) [compound 37] | +++ (50-69% = +++) | ++++ (≥75% = ++++)
27 | 4 (YLGDSHVLL; listed as Homo sapiens) [compound 4] | + (<20% = +) | ++++ (≥75% = ++++)
